Test results reported in patent US20250213701A1, “MEDICAMENT FOR TREATING HUMAN TUMOR BASED ON ERF3A-TARGETING PROTEOLYSIS MECHANISM” (SUZHOU DEGEN BIO-MEDICAL CO., LTD., priority 2022, published 2025).

Key:
Format in all cases: cell-based, human
[1] = system: VCaP cells; assay: Anti-proliferative toxicity against prostate cancer cell line Vcap (CCK8); conditions: Homo sapiens, 72 h, 3 days, CCK8
How it was run: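 VCaP cells (DMEM, 10% FBS) seeded 20000 cells/well, cultured 72 h, then exposed in triplicate to compound at final well concentrations of 0.00001–0.16 μM for 3 days at 37 °C, 5% CO2. Viability by CCK8, 1–4 h at 37 °C, absorbance at 450 nm.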

[2] = system: 22Rv1 cells; assay: Anti-proliferative toxicity against prostate cancer cell line 22Rv1 (CCK8); conditions: Homo sapiens, 72 h, 3 days, CCK8
How it was run: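 22Rv1 cells pre-cultured for 48 h, then exposed to compounds at 0.00001-1.0 μM final, in triplicate, for 3 days. Viability read by CCK8 absorbance at 450 nm after 1-4 h at 37 °C.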

[3] = system: PC-3 cells; assay: Anti-proliferative toxicity against prostate cancer cell line PC-3 (CCK8); conditions: Homo sapiens, 72 h, 3 days
How it was run: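 PC-3 cells (4000/well, pre-cultured 24 h) exposed in triplicate to compound at final 0.00001-1.0 μM for 3 days at 37 °C, 5% CO2. Viability read by CCK8, 1-4 h at 37 °C, absorbance at 450 nm.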

Structure (SMILES) | IC50 [1] [nM] | IC50 [2] [nM] | IC50 [3] [nM]
C[C@]12C=CC(=O)N[C@@H]1CC[C@@H]1[C@@H]2CC[C@]2(C)[C@@H](C(=O)Nc3cccc(OCCCCCCNc4ccc5c(c4)C(=O)N(C4CCC(=O)NC4=O)C5=O)c3)CC[C@@H]12 (stereo partly drawn) [C36, N-(3-((6-((5-(2-(3-(2,6-dioxopiperidine))-isoindole-1,3-dione))amino)hexyl)oxy)phenyl)-3-oxo-4-aza-5α-androst-1-ene-17β-carboxamide] | > 1000 | > 1000 | > 1000
C[C@]12C=CC(=O)N[C@@H]1CC[C@@H]1[C@@H]2CC[C@]2(C)[C@@H](C(=O)Nc3ccc(OCCCCCCCNc4cccc5c4C(=O)N(C4CCC(=O)NC4=O)C5=O)cc3)CC[C@@H]12 (stereo partly drawn) [C23, N-(4-((7-((4-(2-(3-(2,6-dioxopiperidine))-isoindole-1,3-dione))amino)heptyl)oxy)phenyl)-3-oxo-4-aza-5α-androst-1-ene-17β-carboxamide] | > 1000 | > 1000 | > 1000
C[C@]12C=CC(=O)N[C@@H]1CC[C@@H]1[C@@H]2CC[C@]2(C)[C@@H](C(=O)NCCCNc3ccc4c(c3)C(=O)N(C3CCC(=O)NC3=O)C4=O)CC[C@@H]12 (stereo partly drawn) [C4, N-(3-((5-(2-(3-(2,6-dioxopiperidine))-isoindole-1,3-dione))amino)propyl)-3-oxo-4-aza-5α-androst-1-ene-17β-carboxamide] | > 1000 | > 1000 | > 1000
C[C@]12C=CC(=O)N[C@@H]1CC[C@@H]1[C@@H]2CC[C@]2(C)[C@@H](C(=O)NCCCCCNc3ccc4c(c3)C(=O)N(C3CCC(=O)NC3=O)C4=O)CC[C@@H]12 (stereo partly drawn) [C8, N-(5-((5-(2-(3-(2,6-dioxopiperidine))-isoindole-1,3-dione))amino)pentyl)-3-oxo-4-aza-5α-androst-1-ene-17β-carboxamide] | > 1000 | > 1000 | > 1000
CN1C[C@@H](Nc2cccc(NC(=O)[C@H]3CC[C@H]4[C@@H]5CC[C@H]6NC(=O)C=C[C@]6(C)[C@H]5CC[C@]34C)c2)C[C@H](Nc2cccc3c2C(=O)N(C2CCC(=O)NC2=O)C3=O)C1 (stereo partly drawn) [C77, N-(3-(N—(N-(4-(2-(3-(2,6-dioxopiperidine))-isoindole-1,3-dione))-1-methylpiperidine-3S,5S-diamine))phenyl)-3-oxo-4-aza-5α-androst-1-ene-17β-carboxamide] | 10 to 1000 | 10 to 1000 | 10 to 1000
C[C@]12C=CC(=O)N[C@@H]1CC[C@@H]1[C@@H]2CC[C@]2(C)[C@@H](C(=O)Nc3cccc(N4CCC(CN5CCN(c6cccc7c6C(=O)N(C6CCC(=O)NC6=O)C7=O)CC5)CC4)c3)CC[C@@H]12 (stereo partly drawn) [C44, 1-(4-(1-(3-(3-oxo-4-aza-5α-androst-1-ene-17β-carboxamido)phenyl)piperidine))methyl-4-(4-(2-(3-(2,6-dioxopiperidine))-isoindole-1,3-dione))piperazine] | > 1000 | > 1000 | > 1000
C[C@]12C=CC(=O)N[C@@H]1CC[C@@H]1[C@@H]2CC[C@]2(C)[C@@H](C(=O)NCCCCCNc3cccc4c3C(=O)N(C3CCC(=O)NC3=O)C4=O)CC[C@@H]12 (stereo partly drawn) [C7, N-(5-((4-(2-(3-(2,6-dioxopiperidine))-isoindole-1,3-dione))amino)pentyl)-3-oxo-4-aza-5α-androst-1-ene-17β-carboxamide] | > 1000 | > 1000 | > 1000
C[C@]12C=CC(=O)N[C@@H]1CC[C@@H]1[C@@H]2CC[C@]2(C)[C@@H](C(=O)Nc3cccc(N[C@@H]4CCC[C@@H](Nc5cccc6c5C(=O)N([C@@H]5CCC(=O)NC5=O)C6=O)C4)c3)CC[C@@H]12 [C64, N-(3-(N—(N-(4-(2-(3R-(2,6-dioxopiperidine))-isoindole-1,3-dione))-1R,3R-cyclohexanediamine))phenyl)-3-oxo-4-aza-5α-androst-1-ene-17β-carboxamide] | 0.1 to 10 | 0.1 to 10 | 0.1 to 10
